≈ marks a conversion by molar mass, not a printed value. Calls of active or inactive are those of the source. The rule behind the calls is not given here.
Key:
[1] = tested on: Enterococcus faecium; assay: Antibacterial activity against vancomycin resistant Enterococcus faecium VanA clinical isolate by broth microdilution method; type: functional
[2] = tested on: Enterococcus faecalis; assay: Antibacterial activity against vancomycin resistant Enterococcus faecalis VanA clinical isolate by broth microdilution method; type: functional
[3] = tested on: Enterococcus faecalis; assay: Antibacterial activity against vancomycin resistant Enterococcus faecalis VanB clinical isolate by broth microdilution method; type: functional
[4] = tested on: Staphylococcus aureus; assay: Antibacterial activity against methicillin resistant Staphylococcus aureus clinical isolate assessed as susceptibility level by broth microdilution method; type: functional
[5] = tested on: Staphylococcus epidermidis; assay: Antibacterial activity against methicillin resistant Staphylococcus epidermidis clinical isolate assessed as susceptibility level by broth microdilution method; type: functional
[6] = tested on: Staphylococcus capitis; assay: Antibacterial activity against methicillin resistant coagulase-negative Staphylococcus capitis clinical isolate assessed as susceptibility level by broth microdilution method; type: functional
[7] = tested on: Staphylococcus auricularis; assay: Antibacterial activity against methicillin resistant coagulase-negative Staphylococcus auricularis clinical isolate assessed as susceptibility level by broth microdilution method; type: functional
[8] = tested on: Staphylococcus haemolyticus; assay: Antibacterial activity against methicillin resistant coagulase-negative Staphylococcus haemolyticus clinical isolate assessed as susceptibility level by broth microdilution method; type: functional
[9] = tested on: Staphylococcus auricularis; assay: Antibacterial activity against methicillin resistant coagulase-negative Staphylococcus auricularis clinical isolate by broth microdilution method; type: functional
[10] = tested on: Enterococcus faecalis
[11] = tested on: Enterococcus faecium; assay: Antibacterial activity against vancomycin resistant Enterococcus faecium VanB clinical isolate assessed as susceptibility level by broth microdilution method; type: functional
[12] = Antibacterial activity against methicillin resistant coagulase-negative Staphylococcus hominis subsp. novobiosepticus clinical isolate assessed as susceptibility level by broth microdilution method; type: functional
[13] = tested on: Enterococcus faecium; assay: Antibacterial activity against vancomycin resistant Enterococcus faecium VanB clinical isolate by broth microdilution method; type: functional
[14] = tested on: Staphylococcus epidermidis; assay: Antibacterial activity against methicillin resistant Staphylococcus epidermidis clinical isolate by broth microdilution method; type: functional
[15] = tested on: Enterococcus faecalis; assay: Antibacterial activity against vancomycin resistant Enterococcus faecalis VanB clinical isolate assessed as susceptibility level by broth microdilution method; type: functional
[16] = tested on: Staphylococcus saprophyticus; assay: Antibacterial activity against methicillin resistant coagulase-negative Staphylococcus saprophyticus clinical isolate by broth microdilution method; type: functional
[17] = tested on: Enterococcus faecalis; assay: Antibacterial activity against vancomycin resistant Enterococcus faecalis VanA clinical isolate assessed as susceptibility level by broth microdilution method; type: functional
[18] = tested on: Staphylococcus haemolyticus; assay: Antibacterial activity against methicillin resistant coagulase-negative Staphylococcus haemolyticus clinical isolate by broth microdilution method; type: functional
[19] = Antibacterial activity against methicillin resistant coagulase-negative Staphylococcus hominis subsp. novobiosepticus clinical isolate by broth microdilution method; type: functional
[20] = tested on: Staphylococcus aureus; assay: Antibacterial activity against methicillin resistant Staphylococcus aureus clinical isolate by broth microdilution method; type: functional
[21] = tested on: Enterococcus faecium; assay: Antibacterial activity against vancomycin resistant Enterococcus faecium VanA clinical isolate assessed as susceptibility level by broth microdilution method; type: functional
[22] = tested on: Staphylococcus capitis; assay: Antibacterial activity against methicillin resistant coagulase-negative Staphylococcus capitis clinical isolate by broth microdilution method; type: functional
[23] = tested on: Staphylococcus saprophyticus; assay: Antibacterial activity against methicillin resistant coagulase-negative Staphylococcus saprophyticus clinical isolate assessed as susceptibility level by broth microdilution method; type: functional

Compound: CC(=O)N[C@@H]1[C@H](Oc2c3cc4cc2Oc2ccc(cc2Cl)[C@@H](O[C@@H]2O[C@@H](CO)[C@@H](O)[C@H](O)[C@@H]2NC(C)=O)[C@@H]2NC(=O)[C@H](NC(=O)[C@@H]4NC(=O)[C@H]4NC(=O)[C@@H](Cc5ccc(c(Cl)c5)O3)NC(=O)[C@H](N)c3ccc(O)c(c3)Oc3cc(O)cc4c3)c3ccc(O)c(c3)-c3c(O[C@H]4O[C@H](CO)[C@@H](O)[C@@H](O)[C@@H]4O)cc(O)cc3[C@@H](C(=O)O)NC2=O)O[C@@H](CO)[C@@H](O)[C@@H]1O
- MIC50 [1]: 64 mg/L (≈ 36.2 µM)
- MIC90 [1]: > 128 mg/L
- MIC50 [2]: 64 mg/L (≈ 36.2 µM)
- MIC90 [2]: > 128 mg/L
- MIC [3]: 0.5 mg/L (≈ 0.283 µM)
- Activity [4]: 32%
- Activity [5]: 81%
- Activity [6]: 88%
- Activity [7]: 88%
- Activity [8]: 88%
- MIC50 [9]: 4 mg/L (≈ 2.26 µM)
- MIC90 [9]: 32 mg/L (≈ 18.1 µM)
- MIC50 [10]: inactive
- MIC90 [10]: inactive
- Activity [11]: 100%
- Activity [12]: 88%
- MIC50 [13]: 0.5 mg/L (≈ 0.283 µM)
- MIC90 [13]: 1 mg/L (≈ 0.566 µM)
- MIC50 [14]: 8 mg/L (≈ 4.53 µM)
- MIC90 [14]: 16 mg/L (≈ 9.05 µM)
- Activity [15]: 100%
- MIC50 [16]: 4 mg/L (≈ 2.26 µM)
- MIC90 [16]: 32 mg/L (≈ 18.1 µM)
- Percent of isolates susceptible [17]: 0%
- MIC50 [18]: 4 mg/L (≈ 2.26 µM)
- MIC90 [18]: 32 mg/L (≈ 18.1 µM)
- MIC50 [19]: 4 mg/L (≈ 2.26 µM)
- MIC90 [19]: 32 mg/L (≈ 18.1 µM)
- Activity [20]: 32%
- MIC50 ([20]; Staphylococcus aureus): 0.5 mg/L (≈ 0.283 µM)
- MIC90 ([20]; Staphylococcus aureus): 1 mg/L (≈ 0.566 µM)
- Activity [21]: 0%
- MIC50 [22]: 4 mg/L (≈ 2.26 µM)
- MIC90 [22]: 32 mg/L (≈ 18.1 µM)
- Activity [23]: 88%

From ChEMBL document CHEMBL1275440, “In vitro activity of telavancin against resistant gram-positive bacteria” (2008)
